Source: US7550492B2, “Benzo[1,2,5]thiadiazole compounds” (Janssen Pharmaceutica N.V., priority 2003, dated 2009)

What was measured:
[1] = target: T1, CCK2 receptor (Cavia porcellus, UniProt H0VZC5); assay: Guinea-Pig Gastric Corpeal Muscle Assay (isolated muscle strip, pentagastrin-induced contraction); type: cell-based; conditions: CCK1 receptors blocked
T1 construct: strips of muscle were dissected and suspended in isolated tissue organ baths; from tissue; host or cells: guinea-pig gastric corpeal muscle strips
T1 sequence (H0VZC5 1-426): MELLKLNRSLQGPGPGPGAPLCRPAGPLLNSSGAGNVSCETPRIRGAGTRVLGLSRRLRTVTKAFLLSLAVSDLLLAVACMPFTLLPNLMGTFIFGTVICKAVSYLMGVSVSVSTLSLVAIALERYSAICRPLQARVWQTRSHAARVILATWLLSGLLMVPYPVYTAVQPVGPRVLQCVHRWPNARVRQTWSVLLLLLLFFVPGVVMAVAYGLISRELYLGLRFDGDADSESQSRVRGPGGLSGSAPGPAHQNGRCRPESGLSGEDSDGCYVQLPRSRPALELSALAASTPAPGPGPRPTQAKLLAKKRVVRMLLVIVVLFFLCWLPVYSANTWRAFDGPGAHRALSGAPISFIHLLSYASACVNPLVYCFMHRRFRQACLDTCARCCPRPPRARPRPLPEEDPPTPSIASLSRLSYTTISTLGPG
Protocol: Guinea-Pig Gastric Corpeal Muscle Assay
CCK2 receptor-mediated muscle contraction was measured in an isolated muscle-strip assay of guinea-pig gastric corpeal muscle according to the methods described by Roberts et al. (S. P. Roberts, E. A. Harper, G. F. Watt, V. P. Gerskowitch, R. A. Hull, N. P. Shankley, and J. W. Black, Br. J. Pharmacol., 1996, 118(7):1779-1789). In brief, strips of muscle were dissected and suspended in isolated tissue organ baths for isotonic muscle contraction recording. The baths, containing Krebs-Henseleit solution, were maintained at 24° C. and gassed continuously with 95% O2 and 5% CO2. CCK1 receptors known to be present in this assay were blocked using a selective concentration of a suitable CCK1 receptor antagonist (e.g. 2-NAP). The effectiveness of the test compounds was assessed by measuring their effect on contractile concentration-response curves obtained using a well-characterized surrogate for the hormone gastrin (pentagastrin).

[2] = target: T2, CCK2 receptor (Homo sapiens, UniProt P32239); assay: Binding Assay: competition with [125I]-BH-CCK-8S in HEKZFP cell membranes; conditions: 60 min at 21±3° C., Cheng-Prusoff
T2 construct: Membranes were prepared from the HEKZFP cells after induction; endogenous in cells
T2 sequence (P32239 1-447): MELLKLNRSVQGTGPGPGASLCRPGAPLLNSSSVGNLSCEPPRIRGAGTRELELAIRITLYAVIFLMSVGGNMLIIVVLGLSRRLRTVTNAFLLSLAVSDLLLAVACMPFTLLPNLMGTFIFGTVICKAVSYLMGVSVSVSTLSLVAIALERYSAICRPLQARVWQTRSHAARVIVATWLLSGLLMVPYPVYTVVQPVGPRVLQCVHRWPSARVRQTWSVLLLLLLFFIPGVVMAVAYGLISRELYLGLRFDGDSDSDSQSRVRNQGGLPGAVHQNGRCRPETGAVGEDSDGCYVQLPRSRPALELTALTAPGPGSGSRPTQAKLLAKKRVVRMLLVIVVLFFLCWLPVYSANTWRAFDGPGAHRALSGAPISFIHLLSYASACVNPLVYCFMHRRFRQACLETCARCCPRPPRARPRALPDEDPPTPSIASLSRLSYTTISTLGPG
Protocol: Zinc Finger Proteins (ZFP) specific for the CCK2R gene were identified by Sangamo Biosciences. The ZFP domain was fused with the herpes simplex virus VP16 activation domain, and the fusion protein was subsequently cloned into the pcDNA3 mammalian expression vector (Invitrogen, San Diego, Calif.). Tet-inducible cell lines expressing the coding region from the ZFP vector were created using the T-REx-293™ cell line (Invitrogen). After 2 weeks of selection in culture medium containing […] Zeocin (Invitrogen), sixty drug-resistant stable clones were isolated and analyzed for ZFP expression as well as CCK2R induction upon addition of doxycycline to the culture medium. The cell line with the most appropriate CCK2R ZFP construct was used in all further assays and was termed the HEKZFP cell line.
HEKZFP cells were grown in DMEM supplemented with L-glutamine (2 mM), penicillin (50 units/mL) and streptomycin (50 μg/mL) and 10% FBS (v/v). HEKZFP cells were treated with […] doxycycline (Sigma-Aldrich, MO; USA) for 2 days to de-repress the tet-regulated expression of the CCK2 receptor selective zinc finger proteins and were harvested using a rubber cell scraper.
Membranes were prepared from the HEKZFP cells after induction. Frozen cell pellets (−40° C.) were thawed in 14 mL of buffer A (10 mM HEPES, 130 mM NaCl, 4.7 mM KCl, 5 mM MgCl, 1 mM EGTA and 15.4 mg/100 mL bacitracin at pH 7.2), adapted from E. A. Harper et al. (Br. J. Pharmacol. (1996) 118(7):1717-1726). The thawed pellets were homogenized using a Polytron PT-10 (7×1 s). The homogenates were centrifuged for 5 min at 1500 rpm (600×g), and the resulting pellets were discarded. The supernatants were re-centrifuged in order to collect the receptor-membrane pellets (25 min 15,000 rpm; 39,000×g), which were re-suspended in buffer A.
All assays were conducted in 96-well plate (GF/B millipore filter plates) using buffer A. For the optimal cell number determination experiments, cells in concentrations ranging from 2.5×10^5 to 12.5×10^5 cells/well were incubated with 20 pM [^125I]-BH-CCK-8S (50 μL 60 pM) solution) in a total volume of 150 μL. Total binding of [^125I]-BH-CCK-8S was determined in the presence of 15 μL of buffer A. Non-specific binding of [^125I]-BH-CCK-8S was determined in the presence of 15 μL of 10 μM YF476, a CCK-2 receptor selective antagonist that is structurally unrelated to the radioligand [^125I]-BH-CCK-8S. The assay preparation was incubated for 1 h at 21±3° C., and then the assay was terminated by rapid filtration of the preparation under reduced pressure. The loaded filters were washed three times using undiluted PBS (100 μL), and then 100 μL of scintillation fluid was added to the filter plate. Bound radioactivity was determined using a Topcount (Packard BioScience, Meriden, Conn.) with a count time of 1 min. From these experiments a cell concentration of 1 pellet in 15 mL of buffer was chosen for use in other assays. To validate the radioligand concentration and incubation time for the assay, saturation and kinetic binding studies were also conducted (see M. F. Morton, The Pharmacological Characterization of Cholecystokinin Receptors in the Human Gastrointestinal Tract. PhD Thesis, University of London, 2000). […] The assay was then terminated according to the procedure outlined above.
The pKi values were determined using the equation of Y.-C. Cheng and W. H. Prusoff (Biochem. Pharmacol., 1973, 22(23):3099-3108):
To circumvent problems associated with computer-assisted data analysis of compounds with low affinity, the data obtained in the current study were weighted according to a method described by Morton. In brief, 100% and 0% specific binding were defined independently using total binding and binding obtained in the presence of a high concentration of the reference antagonist, 2-NAP.

For O=C(c1ccc(Br)cc1NS(=O)(=O)c1cccc2nsnc12)N1CCCCC1 [Example 5, Benzo[1,2,5]thiadiazole-4-sulfonic acid [5-bromo-2-(piperidine-1-carbonyl)-phenyl]-amide], the pK8 value ([1]; antagonism of pentagastrin concentration-response curves, 24° C.) was 8.8, the “behaviour in the muscle contraction assay” value ([1]; pentagastrin concentration-response curves) was “competitive antagonist” and the pKi [2] was 7.6.
